Key:
[1] = system: core clock gene mRNAs in livers of ICR mice; assay: Four day study, liver clock gene mRNA by RT-qPCR, ICR mice; format: in vivo, mouse; details: 50 mg/kg PO BID 4 days
Description: Male ICR mice (weighing 30-35 g), obtained from Charles River Laboratories (Hollister, CA), were used for the experiment following at least 3 days of acclimation. Mice were dosed with vehicle (WFI or 10% Kolliphor) or compound (50 mg/kg, dose volume 5 mL/kg, PO) for 4 days BID (twice a day), beginning in the afternoon of the first day. The last dose of compound or vehicle was administered on the morning of harvest. On the day of harvest (6 hours following the final dose), mice were euthanized by CO2 asphyxiation and 50 mg of liver tissue was excised and placed in a tube containing 500 μl of RNA later.
(§1) E.Z.N.A.® HP Total RNA Isolation Kits (R6812-01 and the protocol described in the Manual, Revised 2010) were utilized to prepare and isolate RNA from the liver samples. To prepare the RNA samples, 10-30 mg of sample was removed from RNA-Later and placed in a 1.5 ml microfuge tube. GTC lysis buffer (700 μl) was added to the tissue, which was homogenized with a rotor-stator homogenizer (e.g. Tissue-Tearor, Model #985370 BioSpec Products with 4.5 mm probe, Cat. #985370-04), and then centrifuged at full speed (>13,000×g) for 5 minutes. The cleared supernatant was transferred by pipetting to a DNA Clearance Column Pre-inserted in a 2 mL Collection Tube. The assembled column was centrifuged at 13,000×g for 1 minute, and the flow-through was saved. An equal volume (700 μl) of 70% ethanol was added to the lysate and mixed. The sample was then applied to a HiBind RNA spin column placed into a 2 ml collection tube, which was centrifuged at 10,000×g for 60 seconds at room temperature. RNA Wash Buffer I (250 μl) was added by pipetting directly onto a new HiBind RNA column inserted in a 2 ml collection tube. The assembled column was centrifuged at 10,000×g for 60 seconds. The RNA column was placed into a new 2 ml collection tube. DNase I stock solution is pipetted (75 μl) directly onto the surface of the HiBind RNA resin in each column (Using DNAse Digestion with RNase Free DNase Set (E1091): for each HiBind RNA column, the DNase I stock solution was prepared as followed: E.Z.N.A.® DNase I Digestion Buffer 73.5μl, RNase Free DNase I (20 Kunitz/μl) 1.5 μl=Total Volume 75 μl.). The column with bound RNA was incubated at room temperature (25-30° C.) for 15 minutes. RNA Wash Buffer I (500 μl) was added to the column and placed on a bench top for 2 minutes. After centrifuging at 10,000×g for 60 seconds, discarding the flow-through, 500 μl of RNA Wash Buffer II was added and centrifuged at 10,000×g for 60 seconds. Another 500 μl of RNA Wash Buffer II was added and the column assembly was centrifuged at 10,000×g for 60 seconds. The column was centrifuged for 2 minutes at maximum speed to completely dry the HiBind matrix. The column was placed in a clean 1.5 ml microcentrifuge tube and 40-70 μl of molecular biology grade water is added. After sitting for 1 minute, the column was centrifuged for 2 minutes at maximum speed to elute the RNA. The isolated RNA was collected into the collection tube.
RediPlate 96 RiboGreen RNA Quantification Kit (Invitrogen) RediPlate standard curve was prepared by transferring 20 μl reconstituted RNA standard to a RediPlate well reconstituted in 180 μl RediPlate TE buffer. For liver RNAs prepared from 30-100 mg of tissue using a kit similar to the Omega Bio-Tek HP Total RNA Kit and eluted in RNAse-free water in a volume of 50 μl (microliters), 5 μl of the total RNA is diluted in 195 μl of RediPlate TE buffer (1:40 dilution of RNA), mix. After transferring 5 μl to RediPlate well reconstituted in 195 μl TE buffer and incubating 10 min. at RT, Fluorescence Intensity of wells with standards and samples were read in a Tecan M200 with Excitation set at 480 nm and Emission set at 520 nm with the gain set to −70%. Alternatively, one can use the FlexStation 3 with Ex 488 nm and Em 525 nm and a Cutoff of 515 nm.

[2] = system: core clock and gluconeogenic gene mRNAs in liver of C57Bl/6J DIO mice; assay: 24 hour gene expression study, liver mRNA by RT-qPCR, C57Bl/6J DIO mice; format: in vivo, mouse; details: 50 mg/kg BID PO
Excerpt: Male C57Bl/6J DIO mice were purchased at 17 weeks of age (The Jackson Laboratory, Sacramento, Calif.) and acclimated for a 2 week period before being used for the experiment. Overall group size was 15 per treatment, divided into 5 time-points to give a final group size of 3 mice.
In total, each mouse received 5 doses of compound over the course of the experiment. Mice were weighed and randomly assigned to each treatment based on weight the evening before the commencement of the study. Beginning on Day 3 at 3:00 PM, a group of animals from the vehicle and Compound 72-treated groups were euthanized using CO2 asphyxiation, 50 mg of liver, epididymal fat, and skeletal muscle, respectively, were excised and placed in tube containing 500 μl of RNALater. This procedure took place for the remainder of the time-point groups at their given harvest times. Plasma samples were also taken for each animal and frozen, to be used for later measurement of compound levels.
as §1, with “After sitting for 1 minute, the column was centrifuged for 2 minutes at maximum speed to elute the RNA. The isolated RNA was collected into the collection tube.” left out
RediPlate 96 RiboGreen RNA Quantification Kit (Invitrogen) RediPlate standard curve was prepared by transferring 20 μl reconstituted RNA standard to a RediPlate well reconstituted in 180 μl RediPlate TE buffer. […]

O=C1NCCN1CC(O)Cn1c2ccc(F)cc2c2cc(F)ccc21 (centres unmarked) [Compound 72, 1-(3-(3,6-difluoro-9H-carbazol-9-yl)-2-hydroxypropyl)imidazolidin-2-one]
Cry2 transcripts ([1]; ICR mice liver): decrease | increase in Bmal1 mRNA at ZT6 ([1]; ICR mice liver): 4 fold | liver Per2 expression ([1]; ICR mice, ZT6): suppression | Cry2 mRNA daytime peak in liver [2]: strongly attenuated | Bmal1 mRNA in liver ([2]; at ZT8 and 32 hours after original ZT0): substantially increased | Cry1 mRNA in liver ([2]; peak of expression in dark period): suppressed | Per2 mRNA in liver over 24 hours ([2]; vs vehicle): suppressed | circadian pattern of mRNAs for gluconeogenic genes Pck1 and G6Pc ([2]; liver, relative to vehicle): substantially altered
